Experiment: gradient 5% acetonitrile 3 min, to 50% in 2 min, to 85% in 15 min, held 3 min, 100 µL/min
Settings: column: Zorbax Extend-C18 2.1 x 50 mm; eluents: water / acetonitrile, 0.1% formic acid
Outline: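 Each retention time is based on an adduct peak selected computationally and verified by manual inspection. Measurements used HPLC–quadrupole time-of-flight mass spectrometry in positive and negative ionization mode on mixtures of ~100 pure standards. Chromatography ran on a Zorbax Extend-C18 column (2.1 × 50 mm, 1.8 μm) at 100 μL/min with water and acetonitrile, each containing 0.1% formic acid, and dead and dwell volumes of 40 μL and 900 μL.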

RP-LC retention time | Structure (SMILES)
693 s | O=C(c1sc2cc(F)ccc2c1Cl)N1CCN(c2ccccn2)CC1
1220 s | CCOc1ccccc1NC(=O)C1CCCN(c2nc3ccccc3nc2OC)C1 (stereo unspecified)
922 s | COCCNc1c(-c2ccccc2)nc2sc(C(=O)N3CCCC3)c(C)n12
997 s | Cc1ccccc1Nc1c(-c2c(F)cccc2Cl)nc2ccc(Br)cn12
1010 s | Cc1ccc(Cn2nc3ccc(S(=O)(=O)N4CCCCCC4)cn3c2=O)cc1
846 s | COc1cccc(C(=O)CSc2ccc(NC(=O)c3cccs3)nn2)c1
976 s | CC(=O)N1CCc2c(-c3ccccc3)cccc2[C@H]1C
973 s | Cc1ccc(C)c(CNC(=O)C2(c3ccc(NS(C)(=O)=O)cc3)CCCCC2)c1
986 s | Cc1nc(-c2cccc(-c3noc(CNC(=O)Cc4ccc(Cl)cc4)n3)c2)cs1
1290 s | c1ccc(-c2nc3cc(-c4noc(-c5ccncc5)n4)ccc3o2)cc1
792 s | COc1ccc(NC(=O)Cn2c(=O)c(CCC(=O)NC3CCCC3)nc3ccccc32)c(OC)c1
983 s | COc1ccc(-c2noc(C3CCCN3C(=O)Nc3ccccc3C)n2)cc1 (stereo unspecified)
579 s | O=C(NCCN1CCCCC1)c1cn2cc(Cl)ccc2n1
707 s | CN1C(=O)C2(CCN(C(=O)c3ccccc3)C2)c2ccccc21 (stereo unspecified)
1170 s | CCc1nc(-n2cccc2)sc1C(=O)Nc1ccc(F)c(C)c1
850 s | C#CCOCC1CCN(C(=O)CSCc2ccccc2)CC1
711 s | c1cc2c(cc1-c1noc(C3CCCCC3)n1)nnn2CCN1CCOCC1
676 s | COC1CCOC2(CCN(C(=O)c3ccsc3)CC2)C1 (stereo unspecified)
592 s | CC(C)C(=O)NCC(c1ccc(N(C)C)cc1)N1CCN(c2ccc(F)cc2)CC1 (stereo unspecified)
558 s | Cc1nn(C2CCS(=O)(=O)C2)c(C)c1N1CCN(CC(=O)Nc2ccccc2F)CC1 (stereo unspecified)
925 s | CCOC(=O)c1cn(Cc2cccc(C)c2)c2nc(C)ccc2c1=O
943 s | Cc1ccccc1-c1nnc(CSc2nnc(NC(=O)c3ccccc3Br)s2)o1

RP-LC retention time | Structure (SMILES)
753 s | CCc1ccc(S(=O)(=O)N2CCC3(CC2)NCCN=C3NCc2ccc(F)cc2)cc1
582 s | Cc1ncc2c(n1)CCCN(CC(=O)NCC1CC1)C2=O
661 s | Cc1ccccc1NC(=O)Nc1c(-c2ccc(F)cc2)nc2ccccn12
716 s | COc1ccc(Cc2nc(-c3ccc4c(c3)ncn4CCC(=O)N3CCCC3)no2)cc1
633 s | COc1ccc(NC(=O)N2CCN(C3=CC4=NC(C)CN4C=N3)CC2)cc1Cl (stereo unspecified)
803 s | O=C(Cn1cnc(-c2noc(-c3ccccc3)n2)c1)NCc1ccccc1
782 s | CCOC(=O)c1cnc2c(OC)cccc2c1NCC1COc2ccccc2O1 (stereo unspecified)
1030 s | O=C1CC(c2noc(-c3ccc(Cl)cc3)n2)CN1c1ccc(F)cc1 (stereo unspecified)
1130 s | CCc1ccc(N2C(=O)C3N=NN(Cc4nc(-c5cccc(C(F)(F)F)c5)no4)C3C2=O)cc1 (stereo unspecified)
670 s | COc1ccc(-c2noc(CN3CCC(C(=O)NC4CCCCC4)CC3)n2)cc1OC
965 s | CC(=O)Nc1ccc(NC(=O)c2cc3sccc3n2Cc2ccc(Cl)cc2)cc1
1060 s | Cc1cc(C(=O)N2CC(Oc3ccc(-c4nc(-c5ccccc5)no4)cc3)C2)n(C)n1
795 s | COc1ccc(OCC(O)CN2CCN(c3ccc(Cl)cc3)CC2)cc1 (stereo unspecified)
660 s | Cc1ccc(C(=O)N2CCC(CCOCC3CC3)CC2)cn1
733 s | Cc1ccsc1C(=O)Nc1ccc2c(c1)CCC(=O)N2C
1000 s | CCc1nc(-c2csc(S(=O)(=O)N3CCCC(C(=O)Nc4cccc(OC)c4)C3)c2)no1 (stereo unspecified)
673 s | O=C(NC1CC1)c1ccc(CN2CCN(Cc3ccc(F)cc3)C(=O)C2=O)cc1
927 s | Cc1ccc(CNc2c(-c3cccc(Br)c3)nc3ncccn23)cc1
885 s | Cc1ccn(-c2ccc(C(=O)Nc3ccccc3)cn2)n1
678 s | CN(C)CCCNc1oc(-c2ccc(F)cc2)nc1S(=O)(=O)c1ccccc1
800 s | CCn1ncn2cc(S(=O)(=O)NCc3ccccc3)cc2c1=O
630 s | CCOc1ccc(-c2noc(N3CCC(C(=O)N4CCN(CC)CC4)CC3)n2)cc1OC

RP-LC retention time | Structure (SMILES)
973 s | COc1cc(NC(=O)CN2C(=O)CC(c3ccccc3)=Nc3ccccc32)cc(OC)c1
747 s | Cc1nnc(-c2cn(CC(=O)Nc3ccc(F)cc3F)c3ccccc23)o1
792 s | COc1cccc(NC(=O)Cn2nc(C(=O)N3CCCC3)c3ccccc32)c1
751 s | CCN1C(=O)CCc2cc(NS(=O)(=O)c3ccccc3Cl)ccc21
872 s | COc1ccc(C2CC(=O)N(c3cc(C)ccc3C)C(=O)C2)cc1OC
931 s | COc1ccc(-c2cn3c(CC(=O)N(Cc4cccs4)C4CCCCC4)csc3n2)cc1OC
663 s | Cc1cc(C(=O)NCc2ccco2)c2c(=O)n(C)c(=O)n(C)c2n1
869 s | O=c1cc(-c2ccc(Cl)cc2)[nH]c2ccccc12
583 s | O=C(COc1ccc(C(=O)N2CCN(CCc3ccccc3)CC2)cc1)C1CC1
922 s | O=c1n(CCOc2ccccc2)nc2ccc(S(=O)(=O)N3CCCCC3)cn12
730 s | COCCN1CCn2cc(S(=O)(=O)Nc3cc(C)ccc3C)cc2C1=O
712 s | CSc1ccccc1C(=O)NCC1CN(c2ccccc2)C(=O)O1 (stereo unspecified)
912 s | COc1ccc(N2C(=O)C3N=NN(Cc4nc(-c5ccccc5)no4)C3C2=O)cc1 (stereo unspecified)
962 s | CC1CCN(S(=O)(=O)c2ccc3nc(N4CCN(c5ccccc5)CC4)ccc3c2)CC1
948 s | O=C(NCCCc1ccccc1)C1CCN(C(=O)N2CCOc3ccc(Cl)cc32)CC1
660 s | CCOC(=O)CC(=O)Nc1cc2c(cc1N1CCOCC1)n(C)c(=O)n2C
647 s | O=C(Nc1cccc(-c2ccc(N3CCCC3)nn2)c1)c1c(F)cccc1F
1080 s | Cc1csc(NC(=O)c2cn(Cc3cccc(F)c3)nc2OCc2cccc(F)c2)n1
791 s | CCOc1cc(=O)n2c(c1C(=O)Nc1cc(C)cc(C)c1)CCCC2
865 s | CCC(C)Oc1nc2c(c(=O)n(C)c(=O)n2C)n1C (stereo unspecified)
871 s | O=C(Nc1ccccc1-c1nc2ccccc2[nH]1)c1ccccc1Cl
837 s | NC(CO)(CO)CCc1ccc(Sc2cccc(OCc3ccccc3)c2)cc1Cl

RP-LC retention time | Structure (SMILES)
639 s | CCc1noc(-c2ccc(SCC(=O)N3CCC(C(N)=O)CC3)nc2)n1
711 s | O=C(CN1CCC2(CC1)N=C(c1cccc(F)c1)C(=O)N2)Nc1ccc(Br)cc1F
1110 s | COc1cccc(-c2ccc(=O)n(CCc3nc(-c4ccc(Br)cc4)no3)n2)c1
805 s | O=C(NCc1[nH]nc2ccccc12)c1cccc(Cl)c1
745 s | Cc1noc(C)c1Cc1ccc(C(=O)NCCc2noc(C3CC3)n2)o1
840 s | COc1ccccc1-c1nnc(-c2cccc(S(=O)(=O)N(C)C)c2)o1
662 s | COCCN1CCn2cc(S(=O)(=O)Nc3ccc(OC)cc3)cc2C1=O
679 s | COc1cccc(Nc2cc(C(=O)N3CCSCC3)nc3c(OC)cccc23)c1
1040 s | O=c1c2sccc2n(Cc2nc(-c3ccccc3)no2)c(=O)n1Cc1ccc(F)cc1
948 s | Cc1ccccc1C(=O)Nc1nnc(SCc2nnc(-c3ccccc3C)o2)s1
867 s | COc1ccccc1-c1nnc(-c2ccc(C)c(S(=O)(=O)N3CCOCC3)c2)o1
653 s | O=C(NC1CC1)c1[nH]c2ccccc2c1N1CCCC1=O
999 s | O=C(c1cccc(Cl)c1)N1CCc2cc(-c3ccno3)ccc21
1160 s | Cc1ccc(S(=O)(=O)N2CCSCCSCCSCCSCC2)cc1
853 s | Cc1ccc(CNC(=O)C2(c3ccc(NC(=O)C4CC4)cc3)CCC2)cc1
648 s | O=C(C1CCN(c2cnc3nccnc3c2)CC1)N1CCCCC1
724 s | O=C(Nc1cccc(N2CCCCC2=O)c1)OCc1ccccc1
664 s | COCCC(=O)N1CCC2(CCC2OC)CC1 (stereo unspecified)
1030 s | Cn1nnc2ccc(-c3noc(-c4ccccc4Br)n3)cc21
544 s | O=C(CNC(=O)c1ccc(=O)[nH]c1)Nc1ccc(-n2cnnn2)cc1
1000 s | O=C1[C@H]2CN(Cc3cccc(OC(F)(F)F)c3)C[C@H]2C(=O)N1CCc1ccccc1
762 s | COCCCNC(=O)c1nnc(-c2ccc(S(=O)(=O)N3CCC(C)CC3)cc2)o1

Structure (SMILES) | RP-LC retention time
Cc1ncc2c(n1)C[C@@H]1CC[C@H]2N1S(=O)(=O)c1ccccc1C | 750 s
COC1CN(c2ccc(C)cc2)C12CCNCC2 (stereo unspecified) | 622 s
O=C(Nc1ccc(F)cc1F)c1c(O)c2cccnc2n(Cc2ccccc2)c1=O | 1310 s
